Here are results for 5 compounds from US9328138B2 (priority 2011, dated 2016).

Assay [1] addresses HCV NS3 protease genotype 3a (3A-1) (Hepatitis C virus genotype 3a, UniProt Q81258). In words: HCV NS3 protease time-resolved fluorescence (TRF) assay, genotype 3a. Format: biochemical. To be noted: Ki 3a. In outline: (§1)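 NS3/NS4A protease was pre-incubated 10 min with inhibitor in 50 mM HEPES pH 7.5, 150 mM NaCl, 15% glycerol, 0.15% Triton X-100, 10 mM DTT, 0.1% PEG 8000. TRF peptide substrate (25 nM final) was hydrolysed for 6 h at room temperature. IC50 came from four-parameter fits.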

The target in assay [2] is T1, HCV genotype 1b (BK) NS3 modified enzyme with a R155K mutation (Hepatitis C virus genotype 1b, UniProt P26663, R1181K).
T1 construct: HCV genotype 1b (BK) NS3 modified enzyme
In words: HCV NS3 protease time-resolved fluorescence (TRF) assay, genotype 1b R155K. To be noted: Ki 1b R155K, genotype 1b (BK) NS3 R155K; single value. Format: biochemical. Put shortly: as §1

For `C=C[C@@H]1C[C@]1(NC(=O)[C@@H]1C[C@@H]2CN1C(=O)[C@H](C(C)(C)C)NC(=O)O[C@@H]1CCC[C@H]1CCCCCc1c(nc3ccccc3c1OCCN1CCOCC1)O2)C(=O)NS(=O)(=O)C1(C(C)(C)O)CC1` [Example 108, (3aR,7S,10S,12R,24aR)-7-tert-butyl-N-[(1R,2S)-2-ethenyl-1-({[1-(2-hydroxypropan-2-yl)cyclopropyl]sulfonyl}carbamoyl)cyclopropyl]-19-[2-(morpholin-4-yl)ethoxy]-5,8-dioxo-1,2,3,3a,5,6,7,8,11, 12,20,21,22,23,24,24a-hexadeca hydro-10H-9,12-methanocyclopenta [18,19][1,10,3,6]dioxadiaza-cyclononadecino [11,12-b]quinoline-10-carboxamide], the Ki amounted to 23 nM in assay [1] and 0.93 nM in assay [2].
With `C=C[C@@H]1C[C@]1(NC(=O)[C@@H]1C[C@@H]2CN1C(=O)[C@H](C(C)(C)C)NC(=O)O[C@@H]1CCC[C@H]1CCCCCc1c(nc3ccccc3c1OCCN1CCOCC1)O2)C(=O)NS(=O)(=O)N1CCCC1` [Example 109, (3aR,7S,10S,12R,24aR)-7-tert-butyl-N-{(1R,2S)-2-ethenyl-1-[(pyrrolidin-1-ylsulfonyl)carbamoyl]cyclopropyl}-19-[2-(morpholin-4-yl)ethoxy]-5,8-dioxo-1,2,3,3a,5,6,7,8,11,12,20,21,22,23,24,24a-hexadecahydro-10H-9,12-methano cyclopenta[18,19][1,10,3,6] dioxadiazacyclononadecino [11,12-b]quinoline-10-carboxamide], the figures for the Ki in assay [1] and in assay [2] were 122 nM and 4.1 nM, respectively.
Take `C=C[C@@H]1C[C@]1(NC(=O)[C@@H]1C[C@@H]2CN1C(=O)[C@H](C(C)(C)C)NC(=O)O[C@@H]1CCC[C@H]1CCCCCc1c(nc3ccccc3c1OCCN1CCOCC1)O2)C(=O)NS(=O)(=O)N1CCCCC1` [Example 110, (3aR,7S,10S,12R,24aR)-7-tert-butyl-N-{(1R,2S)-2-ethenyl-1-[(piperidin-1-ylsulfonyl)carbamoyl]cyclopropyl}-19-[2-(morpholin-4-yl)ethoxy]-5,8-dioxo-1,2,3,3a,5,6,7,8, 11,12,20,21,22,23,24,24a-hexadecahydro-10H-9,12-methanocyclopenta[18,19] [1,10,3,6]dioxadiaza-cyclononadecino[11,12-b] quinoline-10-carboxamide]: the Ki in assay [1] is 488 nM; in assay [2] it was 14 nM.
The matching figures for `C=C[C@@H]1C[C@]1(NC(=O)[C@@H]1C[C@@H]2CN1C(=O)[C@H](C(C)(C)C)NC(=O)O[C@@H]1CCC[C@H]1CCCCCc1c(nc3ccccc3c1OCCN1CCOCC1)O2)C(=O)NS(=O)(=O)N(C)CCOC` [Example 111, (3aR,7S,10S,12R,24aR)-7-tert-butyl-N-[(1R,2S)-2-ethenyl-1-{[(2-methoxyethyl)(methyl)sulfamoyl]carbamoyl}cyclopropyl]-19-[2-(morpholin-4-yl)ethoxy]-5,8-dioxo-1,2,3,3a,5,6,7,8,11,12,20,21,22,23,24,24a-hexadecahydro-10H-9,12-methano-cyclopenta[18,19][1,10,3,6] dioxadiazacyclononadecino [11,12-b] quinoline-10-carboxamide]: 272 nM and 11 nM.
As for `C=C[C@@H]1C[C@]1(NC(=O)[C@@H]1C[C@@H]2CN1C(=O)[C@H](C(C)(C)C)NC(=O)O[C@@H]1CCC[C@H]1CCCCCc1c(nc3ccccc3c1OCCN1CCOCC1)O2)C(=O)NS(=O)(=O)N1CCOCC1` [Example 112, (3aR,7S,10S,12R,24aR)-7-tert-butyl-N-{(1R,2S)-2-ethenyl-1-[(morpholin-4-ylsulfonyl)carbamoyl]cylcopropyl}-19-[2-(morpholin-4-yl)ethoxy]-5,8-dioxo-1,2,3,3a,5,6,7,8,11,12,20,21,22,23,24,24a-hexadecahydro-10H-9,12-methanocyclopenta[18,19] [1,10,3,6] dioxadiazacyclononadecino [11,12-b]quinoline-10-carboxamide], the Ki amounted to 620 nM in assay [1] and 24 nM in assay [2].

In general, Ki refers to the equilibrium dissociation constant of an inhibitor or competing ligand from its target.
